Assay results published in paper PMC12376128, “In vitro and In Vivo Drug Metabolism Analysis of BPI-460372 - A Covalent TEAD1/3/4 Inhibitor” (Current Drug Metabolism, 2025).

What was measured:
In vivo clearance = details: rats
[1] = design: method as in doi:10.1158/1538-7445.AM2024-7575; details: cited from earlier work
Stability in plasma [2] = type: in vitro ADME; details: dog plasma, 37°C, 4 h
4-week toxicity study = type: in vivo; details: rats
Stability in plasma [3] = type: in vitro ADME; details: human plasma, 37°C, 4 h
human hepatocytes = assay: Metabolism and metabolite formation in hepatocytes; details: human hepatocytes, 10 µM BPI-460372, 4 h incubation
Description: 10 µM BPI-460372 was incubated in five species (human, cynomolgus monkey, beagle dog, SD rat, and ICR mouse) hepatocytes (1 × 10^6 cells·min^-1) at 37 °C for 4 h. 7-EC, as positive control, was incubated for 0 h and 4 h. For blank control, hepatocytes were inactivated by adding ice-cold acetonitrile, and then the BPI-460372 solution was added. All the samples were duplicates. Incubations were stopped using the same volume of cold acetonitrile. The tube was vortexed, and the duplicate samples were combined. Metabolite profiling and identification of BPI-460372 were conducted by using UHPLC-Orbitrap-HRMS. The samples of 7-EC were analyzed by LC-MS/MS and then semi-quantified using the peak area ratio of analyte versus IS.
For hepatocyte metabolite identification, the different metabolites of BPI-460372 were detected using an ACQUITY UPLC HSS T3 column (1.8 µm, 100 mm × 2.1 mm) and ACQUITY UPLC BEH C18 column (1.7 µm, 100 mm × 2.1 mm) for rat and dog metabolite identification. The mobile phase contained a mixture of 0.1% formic acid in water (A) and 0.1% formic acid in acetonitrile (B). The gradient elution program was as follows: 0.0-1.0 min, 5% B; 1.0-7.0 min, 5%-30% B; 7.0-12.0 min, 30%-80% B; 12.0-16.0 min, 80%-95% B; 16.0-18.0 min, 95% B; 18.0-18.1 min, 95%-5% B. Then, 5% B from 18.1 to 20.0 min was maintained for equilibration. The flow rate was set to 0.5 mL/min, and the column temperature was kept at 40°C. Eluted fractions were monitored by a UV detector at 314 nm.

Stability in plasma [4] = type: in vitro ADME; details: monkey plasma, 37°C, 4 h
dog hepatocytes = assay: Metabolism and metabolite formation in hepatocytes; type: in vitro ADME, beagle dog; details: beagle dog hepatocytes, 10 µM BPI-460372, 4 h incubation
Excerpt: (§1) All the samples were duplicates.

rat hepatocytes = assay: Metabolism and metabolite formation in hepatocytes; type: in vitro ADME, SD rat; details: SD rat hepatocytes, 10 µM BPI-460372, 4 h incubation
Excerpt: as §1

CYP2C9 = CYP2C9 (Homo sapiens, UniProt P11712); assay: Metabolic stability in recombinant human CYP isoenzymes; type: in vitro ADME; design: purchased Cypex Ltd. (Dundee, UK); details: rCYP2C9 100 pmol P450/mL, 1 µM
Sequence of CYP2C9 (P11712 whole entry, canonical isoform): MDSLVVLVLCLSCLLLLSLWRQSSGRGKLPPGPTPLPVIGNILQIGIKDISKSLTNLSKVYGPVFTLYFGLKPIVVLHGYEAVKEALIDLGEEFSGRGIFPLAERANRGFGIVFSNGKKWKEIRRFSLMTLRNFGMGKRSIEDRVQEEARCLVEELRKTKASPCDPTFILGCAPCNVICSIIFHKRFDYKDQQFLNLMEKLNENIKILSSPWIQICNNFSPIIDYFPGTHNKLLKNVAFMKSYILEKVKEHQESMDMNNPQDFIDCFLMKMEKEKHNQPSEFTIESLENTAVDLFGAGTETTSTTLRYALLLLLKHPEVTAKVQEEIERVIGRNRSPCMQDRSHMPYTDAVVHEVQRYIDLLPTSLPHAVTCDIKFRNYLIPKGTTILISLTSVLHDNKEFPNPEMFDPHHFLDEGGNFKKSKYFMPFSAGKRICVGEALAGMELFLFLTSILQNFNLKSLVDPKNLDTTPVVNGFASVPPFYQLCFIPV
Description: (§2) To identify the specific isoform that participates in the metabolism of BPI-460372, 1 µM BPI-460372 or positive control substrates were mixed with recombinant human CYP1A2, 2B6, 2C8, 2C9, 2C19, 2D6 or 3A4 (100 pmol P450·mL^-1), and the reaction was started by the addition of NADPH (1 mM final concentration) after 5-minute preincubation at 37°C. Aliquots were maintained in acetonitrile containing IS at different time points at 0 min, 5 min, 10 min, 20 min, 30 min, and 60 min. All incubations were performed in triplicate, and the concentration of the supernatant was determined by LC-MS/MS.
(§3) A substrate depletion approach was employed to determine the intrinsic clearance (CLint (rCYPj)) for each isoform. The contribution of each isoform was estimated using equations 2 and 3. CYPj abundance was evaluated as the abundance (CYPj) of each isoform in HLMs (pmol/mg protein).

CYP1A2 = target: T1, CYP1A2 (Homo sapiens, UniProt P05177); assay: as above; type: in vitro ADME; design: purchased Cypex Ltd. (Dundee, UK); details: rCYP1A2 100 pmol P450/mL, 1 µM
T1 sequence (P05177 1-516): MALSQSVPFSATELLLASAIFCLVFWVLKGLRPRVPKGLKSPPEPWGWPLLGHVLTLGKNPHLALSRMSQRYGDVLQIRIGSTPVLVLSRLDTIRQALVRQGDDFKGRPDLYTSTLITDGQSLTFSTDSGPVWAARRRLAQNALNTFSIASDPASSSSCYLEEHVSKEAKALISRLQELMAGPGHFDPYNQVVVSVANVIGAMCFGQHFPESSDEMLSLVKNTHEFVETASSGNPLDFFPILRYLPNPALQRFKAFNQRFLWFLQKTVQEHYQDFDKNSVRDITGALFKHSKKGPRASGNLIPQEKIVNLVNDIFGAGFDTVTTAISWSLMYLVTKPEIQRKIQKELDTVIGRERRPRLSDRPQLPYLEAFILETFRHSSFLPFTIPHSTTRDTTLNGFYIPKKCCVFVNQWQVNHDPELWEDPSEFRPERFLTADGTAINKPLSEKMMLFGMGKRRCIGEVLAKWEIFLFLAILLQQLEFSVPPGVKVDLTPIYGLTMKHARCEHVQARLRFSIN
Description: as §2, §3

CYP2D6 = CYP2D6 (Homo sapiens, UniProt P10635); assay: as above; type: in vitro ADME; design: purchased Cypex Ltd. (Dundee, UK); details: rCYP2D6 100 pmol P450/mL, 1 µM
Sequence of CYP2D6 (P10635 whole entry): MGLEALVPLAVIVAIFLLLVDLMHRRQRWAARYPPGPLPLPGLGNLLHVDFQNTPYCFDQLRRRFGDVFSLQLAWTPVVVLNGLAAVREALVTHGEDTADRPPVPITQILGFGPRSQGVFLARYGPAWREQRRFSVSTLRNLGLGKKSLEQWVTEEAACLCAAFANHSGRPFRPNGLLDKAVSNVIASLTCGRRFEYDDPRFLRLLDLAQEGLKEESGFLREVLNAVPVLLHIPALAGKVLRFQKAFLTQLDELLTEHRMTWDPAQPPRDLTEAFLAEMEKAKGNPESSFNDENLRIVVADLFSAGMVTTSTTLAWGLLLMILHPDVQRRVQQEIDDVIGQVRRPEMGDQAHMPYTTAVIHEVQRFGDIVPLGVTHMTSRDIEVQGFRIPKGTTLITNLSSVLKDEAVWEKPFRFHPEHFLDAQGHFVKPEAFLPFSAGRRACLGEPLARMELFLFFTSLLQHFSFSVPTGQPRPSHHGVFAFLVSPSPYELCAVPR
Description: as §2, §3

[5] = Metabolite identification in rat plasma, urine, feces and bile; type: in vivo, SD rats
Summary of the method: (§4)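 Pooled sex-specific samples from SD rats: plasma after 12 mg/kg, urine, feces and bile (collected over 0-48 h) after 6 mg/kg; beagle dog plasma after 8 mg/kg. Acetonitrile extraction (urine centrifuged only), dried, redissolved in acetonitrile/water 20:80, analysed by UHPLC-Orbitrap-HRMS.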

monkey hepatocytes = assay: Metabolism and metabolite formation in hepatocytes; type: in vitro ADME, cynomolgus monkey; details: cynomolgus monkey hepatocytes, 10 µM BPI-460372, 4 h incubation
Excerpt: as §1

TEAD palmitoylation = test system: TEAD palmitoylation; design: method as in doi:10.1158/1538-7445.AM2023-501; details: cited from earlier work
[6] = Metabolite identification in dog plasma; type: in vivo, beagle dogs; details: oral 8 mg/kg BPI-460372, average of male and female pooled samples
Summary of the method: as §4

[7] = oral 6 mg/kg BPI-460372, average of male and female pooled samples

C=C(F)C(=O)N1CC(n2c(=O)n(-c3ccc(C(F)(F)F)cc3)c3nccnc32)C1 [BPI-460372]
Clearance in vivo (In vivo clearance): low clearance
Preliminary efficacy ([1]; patients with malignant mesothelioma, lung adenocarcinoma, and lung squamous cell carcinoma): preliminary efficacy was observed
Safety profile ([1]; solid tumor patients): good safety profile
Stability in plasma (Stability in plasma [2]): stable
Main target organs (4-week toxicity study): kidney
Stability in plasma (Stability in plasma [3]): stable
UV (314 nm) Peak Areas Relative Abundance (human hepatocytes): 76.96%
Stability in plasma (Stability in plasma [4]): stable
UV (314 nm) Peak Areas Relative Abundance (dog hepatocytes): 48.28%
UV (314 nm) Peak Areas Relative Abundance (rat hepatocytes): 70.87%
Contribution (CYP2C9): 6.3%
Contribution (CYP1A2): 13.1%
Contribution (CYP2D6): 43.6%
Relative abundance of MS peak areas, Rat Bile 0-48 h [5, 7]: 0.67%
Relative abundance of MS peak areas, Rat Feces 0-48 h [5, 7]: 16.95%
Relative abundance of MS peak areas, Rat Urine 0-48 h [5, 7]: 0.12%
Relative abundance of MS peak areas, Rat Plasma 0-24 h ([5]; oral 12 mg/kg BPI-460372, average of male and female pooled samples): 75.36%
UV (314 nm) Peak Areas Relative Abundance (monkey hepatocytes): 63.98%
Inhibition of the palmitoylation of TEADs (TEAD palmitoylation): inhibit the palmitoylation
Relative abundance of MS peak areas, Dog Plasma 0-48 h [6]: 30.93%
